Laboratory results as given in patent publication US20250000879A1, “PHARMACEUTICAL COMPOSITION FOR PREVENTING DIABETES AND USE THEREOF” (HANYI BIO-TECHNOLOGY (BEIJING) CO., LTD., priority 2018, published 2025).

Experiments:
[1] = test system: mouse model of type 2 diabetes; test: Glucose tolerance test (GTT) in STZ and high-fat feed mouse model of type 2 diabetes; type: in vivo, mice; details: CBD 50 mg/kg by gavage once a day; one month after administration; FIG. 2B
Method: C57 male mice aged 4-6 weeks were used as experimental animals. The mice were fed with high-fat feed. After the mice were fasted for 10-12 hours, they were injected with 50 mg/kg of streptozotocin (STZ) intraperitoneally for 5 consecutive days. […] The mice were applied to Group 2 to 8 in the following step 2). High-fat feed was formed by adding 60% fat to normal feed. […] One month after administration (after the type 2 diabetes model was stabilized,), a glucose tolerance test (GTT) was carried out. The mice were fasted for 10 hours, and injected with 20% (w/w) glucose was intraperitoneally according to their body weights (10 μl/g).

[2] = test system: mouse model of type 1 diabetes; test: Glucose tolerance test (GTT) in STZ-induced mouse model of type 1 diabetes; type: in vivo, mice; details: FIG. 1B
Method: (§1) C57 male mice aged 4-6 weeks were used as experimental animals. After the mice were fasted for 10-12 hours, they were injected with 50 mg/kg of streptozotocin (STZ) intraperitoneally for 5 consecutive days. Fasting blood glucose levels of mice on the 6th and 10th days were measured to determine whether the induction was successful (the induction was considered successful when fasting blood glucose was greater than 11.1 mmol/L). The mice were applied to Group 2 to 6 in the following step 2). […]
(§2) Fasting blood glucose of mice in each group was detected every other three to four weeks; after one month of administration (the model was stable), a glucose tolerance test (GTT) was carried out. […] The blood glucose of the mice before injection (0 min) and at 15 min, 30 min, 60 min and 120 min after injection were measured respectively.

[3] = test system: mouse model of type 2 diabetes; test: Insulin tolerance test (ITT) in STZ and high-fat feed mouse model of type 2 diabetes; type: in vivo, mice; details: CBD 50 mg/kg by gavage once a day; one month after administration; FIG. 2C
Method: (§3) C57 male mice aged 4-6 weeks were used as experimental animals. The mice were fed with high-fat feed. After the mice were fasted for 10-12 hours, they were injected with 50 mg/kg of streptozotocin (STZ) intraperitoneally for 5 consecutive days. […] The mice were applied to Group 2 to 8 in the following step 2).
(§4) High-fat feed was formed by adding 60% fat to normal feed.

[4] = test system: mouse model of type 1 diabetes; test: Fasting blood glucose in STZ-induced mouse model of type 1 diabetes; type: in vivo, mice; details: FIG. 1A; for fasting blood glucose: after 10 days
Method: C57 male mice aged 4-6 weeks were used as experimental animals. After the mice were fasted for 10-12 hours, they were injected with 50 mg/kg of streptozotocin (STZ) intraperitoneally for 5 consecutive days. Fasting blood glucose levels of mice on the 6th and 10th days were measured to determine whether the induction was successful (the induction was considered successful when fasting blood glucose was greater than 11.1 mmol/L). The mice were applied to Group 2 to 6 in the following step 2).
The mice were randomly divided into 6 groups with 10 mice in each group: • Group 1: blank control group, fed with normal feed and intraperitoneally injected with a buffer solution at a dose of 100 μl/mouse, once a day for 5 consecutive days; • wherein, the buffer solution was a citric acid buffer solution with a concentration of 0.1 mol/L and pH of 4.2 and was sterilized by suction filtration. • Group 2: diabetes model group, fed with normal feed and intraperitoneally injected with streptozotocin; • Group 3: CBD prevention group, fed with normal feed, intraperitoneally injected with streptozotocin, and given CBD by gavage from the first day of induction, 50 mg/kg, once a day; • Group 4: CBD treatment group, fed with normal feed, intraperitoneally injected with streptozotocin, and given CBD by gavage after successful induction, 50 mg/kg, once a day; • Group 5: positive drug control group, fed with normal feed, intraperitoneally injected with streptozotocin, and injected with insulin after successful induction, 0.2 U/kg, once a day; and • Group 6: metformin group, fed with normal feed, intraperitoneally injected with streptozotocin, and given metformin by gavage after successful induction, 50 mg/kg, once a day.
as §2

[5] = test system: mouse model of type 2 diabetes; test: Fasting blood glucose in STZ and high-fat feed mouse model of type 2 diabetes; type: in vivo, mice
Method: as §3, §4

[6] = test system: mouse model of type 1 diabetes; test: Insulin tolerance test (ITT) in STZ-induced mouse model of type 1 diabetes; type: in vivo, mice; details: FIG. 1C
Method: as §1
One week after GTT, an insulin tolerance test (ITT) was carried out. […] The blood glucose of the mice before injection (0 min) and at 15 min, 30 min, 60 min and 120 min after injection were measured respectively.

[7] = test system: mouse model of chronic renal failure induced by adriamycin; test: Urinary total protein in mice with chronic renal failure induced by adriamycin; type: in vivo; details: CBD 50 mg/kg by gavage once a day; urine on the 14th day of nephropathy induction; FIG. 7
Method: A mouse model of chronic renal failure induced by adriamycin was constructed according to a conventional method of inducing kidney injury. After CBD treatment for 14 days, urinary total protein level was measured. The specific method is as follows: Kunming white male mice aged 4-6 weeks were used as experimental animals. After the mice were fasted for 10-12 hours, they were injected with 50 mg/kg of streptozotocin (STZ) intraperitoneally for 5 consecutive days. […] On the 7th day after diabetes induction, the mice in the nephropathy group were injected with adriamycin at 10 mg/kg by caudal vein. The mice were applied to the Group 3 to 6 in the following step 2). The experimental animals were randomly divided into 6 groups with 10 animals in each group: • Group 1: control group, fed with normal saline; • Group 2: diabetes group; • Group 3: diabetes+CBD group; given CBD by gavage, 50 mg/kg, once a day; • Group 4: diabetes+adriamycin group; • Group 5: diabetes+adriamycin+CBD group; given CBD by gavage, 50 mg/kg, once a day; and • Group 6: diabetes+adriamycin+metformin group; given metformin by gavage, 50 mg/kg, once a day. After successfully inducing the mouse diabetes model, the mice were injected with adriamycin through caudal vein to induce nephropathy model. Urine was collected from the mice on the 14th day of the induction of nephropathy model, and urinary total protein was detected.

[8] = test system: patients with type 2 diabetes; test: Fasting blood glucose and glycosylated hemoglobin in diabetic volunteers; type: in vivo, human; details: oral CBD 300 mg/day, after 8 weeks, three patients
Method: Every patient received oral CBD treatment at 300 mg/day for 8 weeks. Fasting blood glucose was measured at the 0th, 4th and 8th weeks. Glycosylated hemoglobin value was measured at the 0th and 8th weeks. The results are shown in FIG. 8A and FIG. 8B, respectively.

[9] = test system: mouse lactic acidosis model; test: Blood lactic acid concentration in mouse lactic acidosis model induced by metformin; type: in vivo, mice; details: FIG. 5
Method: ICR male mice aged 4-6 weeks were used as experimental animals. The mice were administrated by gavage with metformin (260 mg/kg) for induction for three times, with an interval of 12 hours.
The mice were randomly divided into seven groups with five mice in each group: • Group 1: control group, no treatment; • Group 2: given water by gavage every day; • Group 3: given CBD by gavage once a day, 50 mg/kg; • Group 4: given 260 mg/kg of metformin by gavage in the morning and evening on the first day, and 260 mg/kg of metformin by gavage in the next morning, and sampled at […] in the next day; • Group 5: given 260 mg/kg of metformin by gavage in the morning and evening on the first day, and 260 mg/kg of metformin by gavage in the next morning, given 50 mg/kg of CBD at the same time metformin was given by gavage, and sampled at […] in the next day. • Group 6: injected with 260 mg/kg of metformin by caudal vein every other one hour for four times, and sampled one hour after the fourth injection; and • Group 7: given 50 mg/kg of CBD by gavage half an hour before caudal vein injection, injected with 260 mg/kg of metformin by caudal vein half an hour later, once every other hour, four times in total, and sampled one hour after the fourth injection. […]

[10] = test system: DB/DB mice (spontaneous type 2 diabetic mice); test: Blood glucose of DB/DB mice after administration treatment; type: in vivo; details: CBD alone 50 mg/kg, intragastric, once a day
Method: In order to study the effect of combined use of CBD and metformin, adult DB/DB mice (spontaneous type 2 diabetic mice, purchased from Model Animal Center of Nanjing University) were randomly divided into 5 groups, with 6 mice in each group: • Group 1: control group, no treatment; • Group 2: CBD alone administration group (50 mg/kg); • Group 3: low-dose metformin group (100 mg/kg, calculated by referring to the lowest dose for human, and the dose for mice=9.1×the dose for human); • Group 4: low-dose metformin (100 mg/kg)+CBD (50 mg/kg) group; and • Group 5: high-dose metformin group (250 mg/kg, calculated by referring to the lowest dose for human, and the dose for mice=9.1×the dose for human).
Group 3 and Group 5 were both positive control groups of the treatment group, Group 3 was low-dose metformin group, and Group 5 was high-dose metformin group.
The administration routes of the above five groups were all intragastric administration, once a day
After 4 weeks of administration, blood glucose of mice in each group was measured.

mouse diarrhea model = test: Diarrhea index in mouse diarrhea model induced by Folium Sennae; type: in vivo, mice; details: days 1-7, FIG. 4A to 4G
Method: ICR female mice of 4-6 weeks old were used as experimental animals. The mice ate and drank normally, and were given 8% (w/w) Folium Sennae solution by gavage, 0.2 ml/mouse. Diarrhea index of the mice was counted every other one and a half hours for 6 hours. Folium Sennae was purchased from Tongrentang Pharmacy in Beijing. The 8% (w/w) Folium Sennae solution was prepared by boiling 8 parts by weight of Folium Sennae and 92 parts by weight of water in a conical flask for 10 min.
The mice were randomly divided into 7 groups with 10 mice in each group: • Group 1: the mice were given the same volume of water by gavage every day; • Group 2: the mice were given 150 mg/kg of metformin by gavage every day; • Group 3: the mice were given 50 mg/kg of CBD by gavage every day; • Group 4: the mice were given 8% Folium Sennae solution by gavage every day; • Group 5: the mice were given a mixed solution of 8% Folium Sennae solution and 150 mg/kg of metformin by gavage every day; • Group 6: the mice were given a mixed solution of 8% Folium Sennae solution and 50 mg/kg of CBD by gavage every day; and • Group 7: the mice were given a mixed solution of 8% Folium Sennae solution, 150 mg/kg of metformin and 50 mg/kg of CBD by gavage every day.
Every day after gavage, the diarrhea index of each mouse was counted every other one and a half hours, 4 times in total […].
Diarrhea index=loose stool rate*loose stool grade
• Diarrhea rate: the number of animals with loose stools in this group/the total number of animals in this group*100%; • Loose stool rate: the number of loose stools per animal/the total number of stools; and • Loose stool grade: the hardness of loose stool graded according to the size of stains on filter paper with loose stool, as shown in Table 1 below.

[11] = test system: diabetes model mice fed with high-fat feed; test: Serum lipid and insulin levels in mice induced by STZ and high-fat feed; type: in vivo; details: metformin alone, 100 or 250 mg/kg by gavage once a day; two months of treatment; FIG. 6E
Method: After the mice were fasted for 10-12 hours, they were injected with 50 mg/kg of streptozotocin (STZ) intraperitoneally for 5 consecutive days.

C=C(C)[C@@H]1CCC(C)=C[C@H]1c1c(O)cc(CCCCC)cc1O [CBD, Cannabidiol]
glucose tolerance test (GTT), regulation of glucose [1]: improve regulation of glucose in the mice induced by STZ and high-fat feed | GTT, CBD prevention group compared with CBD treatment group ([2]; 50 mg/kg by gavage once a day): the CBD prevention group had a better effect than the CBD treatment group | glucose tolerance test (GTT), regulation of glucose ([2]; CBD 50 mg/kg by gavage once a day, after one month of administration): significantly enhance regulation of glucose in the mice | insulin tolerance test (ITT), sensitivity to insulin [3]: improve sensitivity of the mice to insulin | fasting blood glucose, CBD prevention group compared with CBD treatment group ([4]; 50 mg/kg by gavage once a day): the CBD prevention group had a better effect than the CBD treatment group | fasting blood glucose ([4]; CBD prevention group: 50 mg/kg by gavage once a day from the first day of STZ induction): significantly reduce the blood glucose increase caused by STZ | fasting blood glucose ([4]; CBD treatment group: 50 mg/kg by gavage once a day after successful induction): significantly reduce the blood glucose increase caused by STZ | CBD prevention group compared with CBD treatment group (fasting blood glucose, GTT, ITT) ([5]; 50 mg/kg by gavage once a day, FIG. 2A to FIG. 2C): the CBD prevention group had a better effect than the CBD treatment group | fasting blood glucose ([5]; CBD 50 mg/kg by gavage once a day, FIG. 2A): significantly reduce the blood glucose elevation induced by STZ and high-fat feed | ITT, CBD prevention group compared with CBD treatment group ([6]; 50 mg/kg by gavage once a day): the CBD prevention group had a better effect than the CBD treatment group | insulin tolerance test (ITT), sensitivity to insulin ([6]; CBD 50 mg/kg by gavage once a day, one week after GTT): significantly enhance sensitivity of the mice to insulin | urinary total protein level [7]: significantly reduce urinary total protein level | fasting blood glucose ([8]; FIG. 8A): decreased significantly | glycosylated hemoglobin ([8]; FIG. 8B): improved significantly | lactic acid concentration in blood ([9]; CBD 50 mg/kg by gavage with metformin 260 mg/kg (gavage or caudal vein)): significantly inhibit the increase of lactic acid in blood induced by metformin | blood glucose [10]: reduce blood glucose | diarrhea index, diarrhea induced and aggravated by metformin (mouse diarrhea model; CBD 50 mg/kg with 8% Folium Sennae solution and 150 mg/kg metformin by gavage every day): significantly alleviate | diarrhea index, diarrhea induced by Folium Sennae (mouse diarrhea model; CBD 50 mg/kg with 8% Folium Sennae solution by gavage every day): significantly alleviate

CN(C)C(=N)N=C(N)N [metformin, Metformin, reference compound]
lactic acid concentration in blood ([9]; metformin 260 mg/kg, by gavage three times or by caudal vein four times): induce lactic acidemia | diarrhea index (mouse diarrhea model; metformin 150 mg/kg with 8% Folium Sennae solution by gavage every day): aggravate diarrhea induced by Folium Sennae | insulin level in serum (insulin secretion) [11]: could not increase insulin secretion
